Assay results reported in PubChem BioAssay AID330 (DTP/NCI, 2004).
Where “and” joins values, the source holds several entries; their conditions need not be identical. Equal values may be shown once. Inconclusive results and toxic doses are left out. The calls were made as follows: active = survival T/C of 150% or more; inactive = T/C below 125% in these data.

Tested on: P388 leukemia ip, CD2F1 mice, survival T/C
Assay: NCI In Vivo Anticancer Drug Screen. Data for tumor model P388 Leukemia (intraperitoneal) in CD2F1 (CDF1) mice
Settings: endpoint: median survival time, higher = longer survival
Summary of the method: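 Mice carrying the transplanted tumor received test compound or vehicle. Survival was recorded in each group, and the value is the treated-group measurement divided by that of the vehicle-treated control group.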

[1] = dose: 100.0 mg/kg/injection, schedule: Q01DX009 (ip), vehicle: saline with Tween-80
[2] = dose: 200.0 mg/kg/injection, schedule: Q01DX009 (ip), vehicle: saline with Tween-80
[3] = dose: 50.0 mg/kg/injection, schedule: Q01DX009 (ip), vehicle: Klucel (hydroxypropylcellulose) (HPC)
[4] = dose: 100.0 mg/kg/injection, schedule: Q01DX009 (ip), vehicle: Klucel (hydroxypropylcellulose) (HPC)
[5] = dose: 200.0 mg/kg/injection, schedule: Q01DX009 (ip), vehicle: Klucel (hydroxypropylcellulose) (HPC)
[6] = dose: 100.0 mg/kg/injection, schedule: Q01DX001 (ip), vehicle: saline with Tween-80
[7] = dose: 200.0 mg/kg/injection, schedule: Q01DX001 (ip), vehicle: saline with Tween-80
[8] = dose: 400.0 mg/kg/injection, schedule: Q01DX001 (ip), vehicle: saline with Tween-80
[9] = dose: 50.0 mg/kg/injection, schedule: Q01DX005 (ip), vehicle: saline with Tween-80
[10] = dose: 100.0 mg/kg/injection, schedule: Q01DX005 (ip), vehicle: saline with Tween-80
[11] = dose: 200.0 mg/kg/injection, schedule: Q01DX005 (ip), vehicle: saline with Tween-80
[12] = dose: 50.0 mg/kg/injection, schedule: Q01DX009 (ip), vehicle: saline with Tween-80

Measured: T/C

CCOC(=O)C(CNc1ccc(O)cc1)NC(=O)c1ccccc1 (stereo unspecified)
inactive: dose: 50.0 mg/kg/injection, schedule: Q01DX009 (ip), vehicle: saline 101 % of control | [1] 94 % of control | dose: 100.0 mg/kg/injection, schedule: Q01DX009 (ip), vehicle: saline 103 % of control | [2] 94 % of control | dose: 200.0 mg/kg/injection, schedule: Q01DX009 (ip), vehicle: saline 102 % of control | dose: 400.0 mg/kg/injection, schedule: Q01DX009 (ip), vehicle: saline with Tween-80 94 % of control | dose: 400.0 mg/kg/injection, schedule: Q01DX009 (ip), vehicle: saline 101 % of control

CCOC(=O)Nc1cc2c(c(N)n1)N=C(c1ccc(C)cc1C)CN2
inactive: dose: 5.0 mg/kg/injection, schedule: Q01DX005 (ip), vehicle: saline with Tween-80 109 % of control | dose: 10.0 mg/kg/injection, schedule: Q01DX005 (ip), vehicle: saline with Tween-80 115 % of control | dose: 20.0 mg/kg/injection, schedule: Q01DX005 (ip), vehicle: saline with Tween-80 123 % of control

Cc1coc2c1C[C@@]1(C)[C@H](C2)C(=O)CC[C@@H]1C
inactive: dose: 37.5 mg/kg/injection, schedule: Q01DX009 (ip), vehicle: Klucel (hydroxypropylcellulose) (HPC) 105 % of control

c1cc2cc3c(cc2[nH]1)OCO3
inactive: dose: 50.0 mg/kg/injection, schedule: Q01DX005 (ip), vehicle: Klucel + Tween-80 95 % of control | dose: 100.0 mg/kg/injection, schedule: Q01DX005 (ip), vehicle: Klucel + Tween-80 90 % of control | dose: 200.0 mg/kg/injection, schedule: Q01DX005 (ip), vehicle: Klucel + Tween-80 95 % of control

C=C(C)C(=O)OCCOc1ccc(/C=N/N=c2/sc3ccccc3n2C)cc1OC
inactive: [3] 105 % of control | [4] 97 % of control | [5] 108 % of control

CN1C(c2ccccc2)C2CCCC(C1c1ccccc1)C21NC(=O)NC1=O (stereo unspecified)
inactive: [6] 97 % of control | [7] 94 % of control | [8] 94 % of control

O=P(OCC(F)(F)F)(OCC(F)(F)F)c1ccccc1
inactive: [9] 102 % of control | [10] 101 % of control | [11] 96 % of control

C=C1COC(=O)[C@@]12CC[C@@]1(C)[C@@H](CC[C@@H]3[C@@H]1CC[C@]1(C)C([C@H](C)CCCC(C)C)CC[C@@H]31)C2 (stereo partly specified)
inactive: [6] 96 % of control | [7] 93 % of control | [8] 91 % of control

CC(=O)OC(C(=O)OC1C[C@]2(O)C(OC(=O)c3ccccc3)C3[C@@]4(OC(C)=O)CO[C@H]4C[C@@H](OC(C)=O)[C@]3(C)C(=O)[C@@H](OC(C)=O)C(=C1C)C2(C)C)C(NC(=O)c1ccccc1)c1ccccc1 (stereo partly specified)
inactive: dose: 5.0 mg/kg/injection, schedule: Q01DX009 (ip), vehicle: Klucel (hydroxypropylcellulose) (HPC) 99 % of control | dose: 10.0 mg/kg/injection, schedule: Q01DX009 (ip), vehicle: Klucel (hydroxypropylcellulose) (HPC) 105 % of control | dose: 20.0 mg/kg/injection, schedule: Q01DX009 (ip), vehicle: Klucel (hydroxypropylcellulose) (HPC) 100 % of control | dose: 40.0 mg/kg/injection, schedule: Q01DX009 (ip), vehicle: Klucel (hydroxypropylcellulose) (HPC) 104 % of control

C/C(=N\NC(=S)N1CCN(c2ccccn2)CC1)c1nccs1
inactive: dose: 6.25 mg/kg/injection, schedule: Q01DX005 (ip), vehicle: saline with Tween-80 105 % of control | dose: 12.5 mg/kg/injection, schedule: Q01DX005 (ip), vehicle: saline with Tween-80 113 % of control

CC(C)NC(=O)OCc1cc(-c2ccccc2)n(C)c1-c1ccccc1
inactive: dose: 6.25 mg/kg/injection, schedule: Q01DX009 (ip), vehicle: distilled water + Tween-80 104 % of control and 98 % of control | dose: 12.5 mg/kg/injection, schedule: Q01DX009 (ip), vehicle: distilled water + Tween-80 107 % of control and 110 % of control and 113 % of control | dose: 25.0 mg/kg/injection, schedule: Q01DX009 (ip), vehicle: distilled water + Tween-80 117 % of control and 120 % of control and 122 % of control | dose: 50.0 mg/kg/injection, schedule: Q01DX009 (ip), vehicle: distilled water + Tween-80 105 % of control and 114 % of control and 116 % of control | dose: 100.0 mg/kg/injection, schedule: Q01DX009 (ip), vehicle: distilled water + Tween-80 92 % of control

Nc1nnc2nc(C3(c4nc5nnc(N)n5[nH]c4=O)Cc4ccccc4C3=O)c(=O)[nH]n12
inactive: [9] 91 % of control | [10] 100 % of control | [11] 108 % of control

CC(=O)c1c(-c2nc(=S)[nH]c(C)c2C(C)=O)nc(=S)[nH]c1C
inactive: dose: 60.0 mg/kg/injection, schedule: Q01DX005 (ip), vehicle: Klucel (hydroxypropylcellulose) (HPC) 106 % of control | dose: 120.0 mg/kg/injection, schedule: Q01DX005 (ip), vehicle: Klucel (hydroxypropylcellulose) (HPC) 100 % of control | dose: 240.0 mg/kg/injection, schedule: Q01DX005 (ip), vehicle: Klucel (hydroxypropylcellulose) (HPC) 90 % of control

COc1ccc(CSC(=S)Nc2ccc(F)cc2F)cc1
inactive: [3] 99 % of control | dose: 50.0 mg/kg/injection, schedule: Q01DX009 (ip), vehicle: suspension in saline 106 % of control | [4] 107 % of control | dose: 100.0 mg/kg/injection, schedule: Q01DX009 (ip), vehicle: suspension in saline 100 % of control | [5] 112 % of control | dose: 200.0 mg/kg/injection, schedule: Q01DX009 (ip), vehicle: suspension in saline 98 % of control

C#CC1(O)CC2c3ccc(OC)cc3CCC2(C)C1 (stereo unspecified)
inactive: dose: 6.25 mg/kg/injection, schedule: Q01DX009 (ip), vehicle: Klucel (hydroxypropylcellulose) (HPC) 117 % of control | dose: 12.5 mg/kg/injection, schedule: Q01DX009 (ip), vehicle: Klucel (hydroxypropylcellulose) (HPC) 105 % of control | dose: 25.0 mg/kg/injection, schedule: Q01DX009 (ip), vehicle: Klucel (hydroxypropylcellulose) (HPC) 112 % of control

Cc1cc(Cl)ccc1NC(=O)/N=C1\NC(=O)CS1
inactive: [12] 87 % of control | [1] 100 % of control | [2] 110 % of control

Cn1nnnc1CCN(CCN(CCc1nnnn1C)/N=C\c1ccccc1)/N=C\c1ccccc1
inactive: dose: 50.0 mg/kg/injection, schedule: Q04DX003 (ip), vehicle: Klucel (hydroxypropylcellulose) (HPC) 95 % of control | dose: 100.0 mg/kg/injection, schedule: Q04DX003 (ip), vehicle: Klucel (hydroxypropylcellulose) (HPC) 95 % of control | dose: 200.0 mg/kg/injection, schedule: Q04DX003 (ip), vehicle: Klucel (hydroxypropylcellulose) (HPC) 96 % of control

CCCCCC(CN(C)C)C(=O)/C=C/c1ccc(Br)cc1 (stereo unspecified)
inactive: dose: 6.25 mg/kg/injection, schedule: Q01DX005 (ip), vehicle: saline 100 % of control | dose: 12.5 mg/kg/injection, schedule: Q01DX005 (ip), vehicle: saline 110 % of control | dose: 25.0 mg/kg/injection, schedule: Q01DX005 (ip), vehicle: saline 107 % of control | dose: 50.0 mg/kg/injection, schedule: Q01DX005 (ip), vehicle: saline 102 % of control

OCC1CCCC1CO (stereo unspecified)
inactive: [9] 106 % of control and 101 % of control | [10] 105 % of control and 101 % of control | [11] 100 % of control and 114 % of control

CC(=O)n1ccc(=O)[nH]c1=O
inactive: [12] 87 % of control | [1] 96 % of control | dose: 100.0 mg/kg/injection, schedule: Q04DX003 (ip), vehicle: saline with Tween-80 100 % of control | [2] 96 % of control | dose: 200.0 mg/kg/injection, schedule: Q04DX003 (ip), vehicle: saline with Tween-80 96 % of control | dose: 400.0 mg/kg/injection, schedule: Q04DX003 (ip), vehicle: saline with Tween-80 96 % of control
